Results on five compounds are retold here after US20250186469A1, “THERAPEUTIC AGENT FOR OVARIAN CLEAR CELL CARCINOMA” (JSR CORPORATION, priority 2022, published 2025).

SMILES strings stand for the structures.

Assay [1] deals with ovarian clear cell carcinoma organoid. Briefly: Sensitivity test of ovarian clear cell carcinoma organoid (cell viability by ATP activity). It is filed as cell-based, human. Conditions: exposed for 3 days at 0.0001 to 10 μM, FIGS. 13, 14, 17. As to the method:
Based on the above-described results of HTDS, the test focused on the proteasome inhibitors that were found with multiple hits among the 9 hit compounds. A proteasome inhibitor (bortezomib, carfilzomib, and ixazomib), a microtubule inhibitor (paclitaxel), and a platinum formulation (cisplatin and carboplatin) were prepared at each of final concentrations of 0.0001 μM, 0.001 µM, 0.01 μM, 0.1 μM, 1 μM, and 10 μM, the ovarian clear cell carcinoma organoid was exposed to each of the concentrations for 3 days, and the cell viability was measured by measuring the ATP activity.
FIGS. 13 and 14 show graphic views of the results of the measured cell viabilities.
For the CDK 1, 2, 5, and 9 inhibitor (dinaciclib) that was hit in the 9 compounds that were hit more in HTDS, the cell viability was measured by measuring an ATP activity in the same manner as in Experimental Example 8.

In assay [2] the test system is ovarian clear cell carcinoma organoid CCC19-042. Briefly: Drug sensitivity test for immunodeficient mouse transplanted with ovarian clear cell carcinoma organoid. It is filed as in vivo. Conditions: 1 mg/kg intraperitoneally twice a week from the 7th day after transplantation, versus DMSO vehicle; FIG. 15C. On the procedure: The ovarian clear cell carcinoma organoid CCC19-042 was cultured until it reached a diameter of approximately 50 to 100 μm. The organoid was recovered in a 50 mL tube after removing the culture medium from the plate and then suspending the organoid in a Cell Recovery Solution (Corning, 354235). The solution including the recovered organoid was placed on ice and the Matrigel was depolymerized. After the completion of the reaction, the organoid was washed with a culture medium and re-suspended in the Matrigel so that 1×10^6 cells were present in 100 μL.
The organoid corresponding to 1×10^6 cells was transplanted subcutaneously (left shoulder) in an immunodeficient mouse, and the tumor forming ability was evaluated on the 7th day after the transplantation. In addition, a thinly sliced slide was created from an FFPE section of the tumor and subjected to HE staining and HNF1β immunostaining.
With regard to the immunodeficient mouse transplanted with the ovarian clear cell carcinoma organoid shown in Experimental Example 9, administration, measurement of a weekly body weight, and calculation of a tumor volume were performed from the 7th day after transplantation. […]
The tumor volume was calculated by the following expression.

The test system of assay [3] is ovarian cancer organoid. The assay is described as follows: Sensitivity test of ovarian cancer organoid to PARP inhibitor (cell viability by ATP activity). It is filed as cell-based, human. Conditions: exposed for 3 days at 0.0001 to 10 μM; each cell line; FIG. 7. On the procedure:
A sensitivity test of the ovarian cancer organoid to olaparib was performed. Olaparib which is a kind of PARP inhibitor was prepared at a final concentration of each of 0.0001 μM, 0.001 μM, 0.01 μM, 0.1 μM, 1 μM, and 10 μM, and the ovarian cancer organoid was exposed to olaparib for 3 days at each concentration, and the cell viability was measured by measuring the ATP activity.
The vertical axis indicates the cell viability as a ratio to the control, and the horizontal axis indicates the final concentration (μM) of olaparib.

For `CC(C)C[C@H](NC(=O)[C@H](Cc1ccccc1)NC(=O)c1cnccn1)B(O)O` [bortezomib], the cell viability entry in assay [1] is reported as “significant decrease in cell viability depending on the concentration”. The tumor volume result in assay [2] was “decrease in tumor volume”. On to `CC(C)C[C@H](NC(=O)[C@H](CCc1ccccc1)NC(=O)CN1CCOCC1)C(=O)N[C@@H](Cc1ccccc1)C(=O)N[C@@H](CC(C)C)C(=O)[C@@]1(C)CO1` [carfilzomib], for which the cell viability result in assay [1] was “significant decrease in cell viability depending on the concentration”. For the compound `CC(C)C[C@H](NC(=O)CNC(=O)c1cc(Cl)ccc1Cl)B(O)O` [ixazomib], the cell viability entry in assay [1] is recorded as “significant decrease in cell viability depending on the concentration”. In the case of `CC(=O)O[C@H]1C(=O)[C@@]2(C)[C@H]([C@H](OC(=O)c3ccccc3)[C@]3(O)C[C@H](OC(=O)[C@H](O)[C@@H](NC(=O)c4ccccc4)c4ccccc4)C(C)=C1C3(C)C)[C@]1(OC(C)=O)CO[C@@H]1C[C@@H]2O` [paclitaxel], the cell viability result in assay [1] is given as “significant decrease in cell viability depending on the concentration”. For the compound `O=C(c1cc(Cc2n[nH]c(=O)c3ccccc23)ccc1F)N1CCN(C(=O)C2CC2)CC1` [olaparib], the “cell viability (ratio to the control)” value in assay [3] is given as “reduced depending on the concentration”.
